The values below come from patent publication US11056705B2, “Organic anolyte materials for flow batteries” (THE REGENTS OF THE UNIVERSITY OF MICHIGAN, priority 2015, dated 2021).

SMILES strings stand for the structures. Where “and” joins values, the source holds several entries; their conditions need not be identical. Identical values can stand only once.

A short description of series [1]: Stability of solutions in MeCN monitored by 1H NMR or UV-vis spectroscopy. It counts as physicochemical. On the procedure: The stabilities of 10a, 10a^(•) and Na-10a^(−) were monitored as solutions in MeCN by ^1H NMR spectroscopy or UV-vis spectroscopy. Separate solutions of 10a, 10a^(•) and Na-10a^(−) in MeCN were prepared at 480 mM, 540 mM and 39 mM concentrations, respectively. The parent compound 10a was monitored by ^1H NMR spectroscopy against an internal standard of 1,3,5-trimethoxybenzene. […] Solutions of the reduced species 10a^(•) and Na-10a^(−) were stored at room temperature under nitrogen, and the concentrations of the solutions were measured periodically over 36 h or 48 h by UV-vis spectroscopy (FIG. 13).

Series [2] is described as follows: Cyclic voltammetry (CV) of anolyte candidates in a three-electrode cell. Type of series: physicochemical. The following applies: for baseline (initial) current at starting potential of +1 V: MeCN/LiBF4, 0.01 M, 100 mV/s; for current ratio i9a(−)/iLi-9a: 0.1 M LiBF4 in MeCN.
Series [3] in a line: Solubility in MeCN by UV-vis spectroscopy under inert atmosphere.
Procedure: (§1) The solubilities of 10a, 10a^(•), and Na-10a^(−) were determined by UV-vis spectroscopy in MeCN under an inert atmosphere.
(§2) A saturated solution of 10a^(•) was prepared and analyzed at 322 nm by UV-vis spectroscopy.
The nature of the next series: physchem. The note with it: organic solvent or mixture, thermodynamic from solid.
Series [4] in a line: Simulation of CVs fit to experimental data: Li+ association/dissociation with charged anolyte. Type of series: physicochemical. On the procedure: To obtain values for the rates for association as well as the equilibrium constant for formation of Li-9a, the redox system proposed in Scheme 9 was computationally modeled. Diffusion constants for the anolyte were calculated to be on the order of 2×10^−9 m^2/s by analysis of changes in the potential at the first reductive couple with variable scan rates. This value was applied for all species in the simulation based on their similar molecular weights. A resistance of 400 ohms and no capacitance was simulated for all couples. With these parameters, the simulations were fit to experimental data acquired at variable scan rates (FIG. 9) in order to estimate the rate constants for association and dissociation of Li^+. The experimentally measured CVs features were accurately reproduced when the rate constant for Li^+ coordination was 10 M^−1s^−1 and the rate constant for dissociation was 0.5 s^−1. These rate constants indicate that the equilibrium constant for binding of Li^+ to 9a^(−) is on the order of 20 M^−1.
This system was further investigated at higher concentrations of Li^+. CVs were acquired at concentrations of LiBF4 ranging from 57 mM to 260 mM with a constant 0.1 M concentration of 9a (FIG. 9b; solid lines). As expected, higher concentrations of LiBF4 led to greater currents from the oxidation of Li-9a. The calculated rate constants (ki=10 M^−1s^−1, k^−1=0.5 s^−1) were employed to model the effects of LiBF4 concentration on the current peak-heights. The results are illustrated in FIG. 9b (dashed lines) and are in full agreement with the experimentally measured CVs.

[5] abbreviates: simulation fit to experimental CVs at variable scan rates, MeCN/LiBF4.
The mark [6] stands for this setting: MeCN/LiBF4, cathodic sweep starting at +1 V.

Procedure for physchem: as §1, §2

As to `CC([O-])=C1C=CN(C)C=C1.[Na+]` [Na-10a^(−)], in series [1] (MeCN, room temperature under nitrogen, UV-vis over 36 h or 48 h, 540 mM (10a•), 39 mM (Na-10a−)), the “concentration of solution on storage” value is reported as “did not change”. Also, the “baseline (initial) current at starting potential of +1 V” value in series [2] is 40-50 μA and 45 μA. For the same molecule, in series [3], the “solubility (saturation concentration)” value was 0.062 ± 0.007 M.
For orientation: solubility means how much of the substance goes into solution per volume. For the molecule `CC(=O)c1cc[n+](C)cc1` [Compound 10a], in series [1] (480 mM in MeCN, 1H NMR vs internal standard, four days, in the presence of air and moisture), the decomposition in solution result is “No measurable decomposition”. Further, in series [2] (MeCN/LiBF4), the “difference of first reduction potential, 9a versus 10a” value came to 0.1 V; the “peak height ratios of two reductive couples” value was “close to 1”; the “second reduction more positive than that of 9a” value stood at 0.4 V. Moreover, the “baseline (initial) current at starting potential of +1 V” value in series [2] is recorded as “no analogous current is observed”. In addition, the solubility in the series “physchem” worked out at 1600 ± 100 mM.
Consider `COC(=O)c1cc[n+](C)cc1.F[B-](F)(F)F` [Compound 9a], for which the diffusion constant in series [4] (from changes in potential at the first reductive couple with variable scan rates) is on record as ~2×10^−9 m^2/s. Besides, in series [4] (from the fitted rate constants), the “equilibrium constant for binding of Li^+” value was about 20 M⁻¹. The “rate constant for Li^+ coordination” value in series [4] (setting [5]) is 10 M⁻¹ s⁻¹. Also, the “rate constant for dissociation” value in series [4] (setting [5]) was 0.5 s⁻¹. In addition, the “current ratio i9a(−)/iLi-9a” value in series [2] (50 mV/s) turned out to be 32; in series [2] (200 mV/s) it was 11; in series [2] (500 mV/s) it was 6. The “potential at which charged anolyte is oxidized (discharged)” value in series [2] (MeCN, 0.1 M LiBF4) is −1.7 V. Also, the “current at +0.4 V (lithium adduct formation)” value in series [2] (MeCN, 0.1 M LiBF4, 200 mV/s) is listed as “almost no current was detected”. Besides, the “first single-electron reduction (step i)” value in series [2] (setting [6]) is −1.1 V. Further, the “second single-electron reduction (step ii)” value in series [2] (setting [6]) is listed as −1.9 V.
